Inconclusive results are not listed. Calls of active or inactive are those of the source. How the calls were made is not given here.
Legend:
[1] = system: LMP1-induced NF-kappaB luciferase reporter cells, luminescence; assay: inhibitors of EBV LMP1 NF-kappaB signaling – cell-based, luciferase reporter, luminescence, dry powder, set 2, dose response (AID 624376)
[2] = as above; settings: LMP1-induced NF-kappaB luciferase reporter cells, luminescence

COc1ccccc1C#Cc1ccc2c(c1)O[C@H](CN(C)Cc1cccnc1)[C@H](C)CN([C@H](C)CO)S2(=O)=O
AC50 [1]: 22.9 µM

CN(C)C(=O)c1ccc(-c2cccc(-c3nc(C(=O)NCc4ccccc4)cc4c3[C@@H](CCO)N([S@](=O)C(C)(C)C)C4)c2)cc1
AC50 [1]: 13.7 µM

COc1ccccc1C#Cc1ccc2c(c1)O[C@H](CN(C)Cc1cccnc1)[C@H](C)CN([C@@H](C)CO)S2(=O)=O
AC50 [1]: 17.4 µM

N#C[C@@H]1[C@H](c2ccc(C#Cc3ccccc3F)cc2)[C@@H](CO)N1C(=O)c1cccnc1
AC50 [1]: 1.02 µM

N#C[C@H]1[C@H](c2ccc(C#Cc3ccccc3F)cc2)[C@@H](CO)N1C(=O)c1cccnc1
AC50 [1]: 15 µM

O=C(C[C@H]1C[C@H]2c3cc(NC(=O)c4ccc5c(c4)OCO5)ccc3O[C@H]2[C@H](CO)O1)NCc1ccc(Oc2ccccc2)cc1
AC50 [1]: 18.7 µM

C[C@@H]1CN([C@@H](C)CO)S(=O)(=O)c2ccc(C#Cc3ccncc3)cc2O[C@H]1CN(C)C(=O)Nc1ccc2c(c1)OCO2
AC50 [1]: 31.6 µM

CC(C)(C)[S@@](=O)N1Cc2cc(C(=O)NCc3ccccc3F)nc(-c3cccc(-c4cccnc4)c3)c2[C@H]1CCO
AC50 [1]: 35.6 µM

O=C(C[C@@H]1C[C@@H]2c3cc(NS(=O)(=O)c4ccc(F)cc4)ccc3O[C@@H]2[C@@H](CO)O1)NCc1ccc(Oc2ccccc2)cc1
AC50 [1]: 8.07 µM

COc1cccc(C#Cc2ccc([C@@H]3[C@H](C#N)N(C(=O)c4ccccn4)[C@H]3CO)cc2)c1
AC50 [1]: 29.5 µM

O=C(C[C@H]1C[C@H]2c3cc(NS(=O)(=O)c4ccc(F)cc4)ccc3O[C@H]2[C@H](CO)O1)NCc1ccc(Oc2ccccc2)cc1
AC50 [1]: 10 µM

CN(C)C(=O)c1cccc(-c2cccc(-c3nc(C(=O)NCc4ccccc4)cc4c3[C@@H](CCO)N([S@](=O)C(C)(C)C)C4)c2)c1
AC50 [1]: 16.9 µM

O=C(C[C@@H]1C[C@@H]2c3cc(NC(=O)c4ccc5c(c4)OCO5)ccc3O[C@@H]2[C@@H](CO)O1)NCc1ccc(Oc2ccccc2)cc1
AC50 [1]: 9.85 µM

O=C(C[C@H]1C[C@@H]2c3cc(NS(=O)(=O)c4ccc(F)cc4)ccc3O[C@@H]2[C@@H](CO)O1)NCc1ccc(Oc2ccccc2)cc1
AC50 [1]: 13.5 µM

Cc1cc(C(=O)Nc2ccc3c(c2)C(=O)N(C)[C@H]2CC[C@H](CC(=O)NCc4ccc(-c5ccccc5)cc4)O[C@H]2CO3)no1
AC50 [1]: 14.7 µM

N#C[C@H]1[C@@H](c2ccc(-c3cccnc3)cc2)[C@@H](CO)N1C(=O)Nc1ccc(F)cc1
AC50 [1]: 13.9 µM

CC(C)(C)[S@](=O)N1Cc2cc(C(=O)NCC(F)(F)F)nc(-c3cccc(-c4cccc(F)c4)c3)c2[C@@H]1CCO
AC50 [1]: 11.9 µM

Cc1ccc(S(=O)(=O)N(C)C[C@H]2Oc3cc(C#Cc4ccncc4)ccc3S(=O)(=O)N([C@@H](C)CO)C[C@@H]2C)cc1
AC50 [1]: 21.2 µM

O=C(C[C@H]1C[C@@H]2c3cc(NC(=O)c4ccc5c(c4)OCO5)ccc3O[C@@H]2[C@@H](CO)O1)NCc1ccc(Oc2ccccc2)cc1
AC50 [1]: 24.5 µM

COc1ccccc1C#Cc1cnc2c(c1)C(=O)N([C@@H](C)CO)C[C@H](C)[C@@H](CN(C)C(=O)c1ccc3c(c1)OCO3)O2
AC50 [1]: 25.9 µM

Cc1cc(C(=O)Nc2ccc3c(c2)C(=O)N(C)[C@@H]2CC[C@H](CC(=O)NCc4ccc(-c5ccccc5)cc4)O[C@H]2CO3)no1
AC50 [1]: 1.6 µM

C[C@@H]1CN([C@H](C)CO)S(=O)(=O)c2ccc(/C=C/c3ccccc3)cc2O[C@H]1CN(C)C(=O)NC1CCCCC1
AC50 [1]: 25.3 µM

Cc1ccc(S(=O)(=O)N(C)C[C@H]2Oc3cc(C#Cc4ccncc4)ccc3S(=O)(=O)N([C@@H](C)CO)C[C@H]2C)cc1
AC50 [1]: 21.4 µM

CC(C)NC(=O)N1Cc2cc(C(=O)NC3Cc4ccccc4C3)nc(-c3cccc(-c4cccnc4)c3)c2[C@@H]1CCO
AC50 [1]: 22 µM

O=C(C[C@@H]1C[C@H]2c3cc(NS(=O)(=O)c4ccc(F)cc4)ccc3O[C@H]2[C@@H](CO)O1)NCc1ccc(Oc2ccccc2)cc1
AC50 [1]: 15.3 µM

CC(C)NC(=O)N1Cc2cc(C(=O)NC3Cc4ccccc4C3)nc(-c3cccc(-c4cccnc4)c3)c2[C@H]1CCO
AC50 [1]: 33.6 µM

C[C@H]1CN([C@@H](C)CO)C(=O)c2cc(C#Cc3ccccc3F)cnc2O[C@@H]1CN(C)C(=O)C1CCCCC1
AC50 [1]: 27.7 µM

O=C(Nc1ccc(C(F)(F)F)cc1)Nc1ccc2c(c1)[C@H]1C[C@@H](CC(=O)N3CCc4ccccc4C3)O[C@@H](CO)[C@H]1O2
AC50 [1]: 27.9 µM

CN1C(=O)c2cc(NC(=O)Cc3cccs3)ccc2OC[C@@H]2O[C@H](CC(=O)NCc3ccc(-c4ccccc4)cc3)CC[C@H]21
AC50 [1]: 33 µM

COc1ccccc1C#Cc1ccc2c(c1)O[C@H](CN(C)Cc1cccnc1)[C@@H](C)CN([C@@H](C)CO)S2(=O)=O
AC50 [1]: 13.9 µM

Cc1cc(C(=O)Nc2ccc3c(c2)C(=O)N(C)[C@@H]2CC[C@H](CC(=O)NCc4ccc(-c5ccccc5)cc4)O[C@@H]2CO3)no1
AC50 [1]: 9.74 µM

O=C(C[C@@H]1CC[C@@H]2[C@H](COC[C@@H](O)CN2Cc2ccc3c(c2)OCO3)O1)Nc1ccc(-c2ccccc2)cc1
AC50 [1]: 10.2 µM

O=C(C[C@H]1CC[C@@H]2[C@H](COC[C@H](O)CN2Cc2ccc(Oc3ccccc3)cc2)O1)N1CCc2ccccc2C1
AC50 [1]: 34.5 µM

Cc1cc(C(=O)Nc2ccc3c(c2)C(=O)N(C)[C@H]2CC[C@@H](CC(=O)NCc4ccc(-c5ccccc5)cc4)O[C@H]2CO3)no1
AC50 [1]: 10.8 µM

O=C(Nc1ccc(C(F)(F)F)cc1)Nc1ccc2c(c1)[C@H]1C[C@H](CC(=O)N3CCc4ccccc4C3)O[C@H](CO)[C@H]1O2
AC50 [1]: 24.2 µM

O=C(Nc1ccc(C(F)(F)F)cc1)Nc1ccc2c(c1)[C@@H]1C[C@H](CC(=O)N3CCc4ccccc4C3)O[C@@H](CO)[C@@H]1O2
AC50 [1]: 15.1 µM

C[C@H]1CN([C@@H](C)CO)S(=O)(=O)c2ccc(C#Cc3ccncc3)cc2O[C@H]1CN(C)C(=O)Nc1ccc2c(c1)OCO2
AC50 [1]: 19.7 µM

COc1ccc(-c2cccc(-c3nc(C(=O)NCC(F)(F)F)cc4c3[C@H](CCO)N([S@@](=O)C(C)(C)C)C4)c2)cc1
AC50 [1]: 24.3 µM

CCCNC(=O)c1cc2c(c(-c3cccc(-c4cccc(F)c4)c3)n1)[C@H](CCO)N([S@@](=O)C(C)(C)C)C2
AC50 [1]: 22.7 µM

O=C(C[C@@H]1CC[C@@H]2[C@H](COC[C@H](O)CN2Cc2ccc3c(c2)OCO3)O1)Nc1ccc(-c2ccccc2)cc1
AC50 [1]: 7.97 µM

COc1ccccc1C#Cc1ccc([C@H]2[C@H](C#N)N(C(=O)C3CC3)[C@H]2CO)cc1
AC50 [1]: 30.5 µM

CN(C)c1ccc2c(c1)[C@@H]1C[C@@H](CC(=O)NCc3ccc(Oc4ccccc4)cc3)O[C@H](CO)[C@@H]1O2
AC50 [1]: 21.6 µM

N#C[C@H]1N[C@H](CO)[C@H]1c1ccc(C#Cc2ccccc2F)cc1
AC50 [1]: < 0.26 µM

O=C(Nc1ccc(C(F)(F)F)cc1)Nc1ccc2c(c1)[C@@H]1C[C@H](CC(=O)N3CCc4ccccc4C3)O[C@H](CO)[C@@H]1O2
AC50 [1]: 18.3 µM

CC(C)c1ccc(NC(=O)C[C@H]2CC[C@H]3[C@@H](COc4ccc(NC(=O)Nc5ccc(F)c(F)c5)cc4C(=O)N3C)O2)cc1
AC50 [1]: 22.2 µM

N#C[C@H]1[C@H](c2ccc(C#Cc3ccccc3F)cc2)[C@H](CO)N1C(=O)c1cccnc1
AC50 [1]: 12.6 µM

CN(C)c1ccc2c(c1)[C@@H]1C[C@H](CC(=O)NCc3ccc(Oc4ccccc4)cc3)O[C@@H](CO)[C@@H]1O2
AC50 [1]: 9.81 µM

C[C@H](CO)N1C[C@H](C)[C@H](CN(C)C(=O)NC2CCCCC2)Oc2cc(/C=C/c3ccccc3)ccc2S1(=O)=O
AC50 [1]: 31 µM

O=C(C[C@H]1CC[C@H]2[C@@H](COC[C@@H](O)CN2Cc2ccc3c(c2)OCO3)O1)Nc1ccc(-c2ccccc2)cc1
AC50 [1]: 24.1 µM

O=C(C[C@@H]1CC[C@H]2[C@@H](COC[C@H](O)CN2Cc2ccc(Oc3ccccc3)cc2)O1)N1CCc2ccccc2C1
AC50 [1]: 19.7 µM

Cc1cc(C(=O)Nc2ccc3c(c2)C(=O)N(C)[C@@H]2CC[C@@H](CC(=O)NCc4ccc(-c5ccccc5)cc4)O[C@H]2CO3)no1
AC50 [1]: 25.9 µM

O=C(C[C@@H]1C[C@H]2c3cc(NC(=O)c4ccc5c(c4)OCO5)ccc3O[C@H]2[C@H](CO)O1)NC1CCCCC1
AC50 [1]: 16.8 µM

O=C(C[C@@H]1CC[C@@H]2[C@H](COC[C@@H](O)CN2Cc2ccc(Oc3ccccc3)cc2)O1)N1CCc2ccccc2C1
AC50 [1]: 16.4 µM

COc1cccc(C#Cc2ccc([C@@H]3[C@@H](C#N)N(C(=O)c4ccccn4)[C@@H]3CO)cc2)c1
AC50 [1]: 19.2 µM

CC(C)(C)[S@@](=O)N1Cc2cc(C(=O)NCCc3ccncc3)nc(-c3cccc(-c4cccnc4)c3)c2[C@H]1CCO
activity change, negative = inhibition ([2]; at 35 µM (top of the series)): -10.1% (inactive)

C[C@@H](NC(=O)C[C@@H]1C=C[C@@H](NC(=O)Cc2ccccn2)[C@@H](CO)O1)c1ccccc1
activity change, negative = inhibition ([2]; at 35 µM (top of the series)): -0.171% (inactive)

CN1C(=O)c2cc(NC(=O)c3ccc(C(F)(F)F)cc3)ccc2OC[C@@H]2O[C@@H](CC(=O)NC3Cc4ccccc4C3)CC[C@H]21
AC50 [1]: 24.5 µM

COc1cccc(S(=O)(=O)N(C)C[C@@H]2Oc3cc(C4=CCCCC4)ccc3S(=O)(=O)N([C@@H](C)CO)C[C@H]2C)c1
activity change, negative = inhibition ([2]; at 35 µM (top of the series)): 4.81% (inactive)

C[C@H](NC(=O)C[C@@H]1C=C[C@H](NC(=O)Cc2ccccn2)[C@H](CO)O1)c1ccccc1
activity change, negative = inhibition ([2]; at 30 µM (top of the series)): -8.89% (inactive)

Reference: PubChem BioAssay AID624376 (Broad Institute, 2012)
